Data: ChEMBL document CHEMBL3885881, “DrugMatrix”

Species on record: Rattus norvegicus
Assay: DrugMatrix - Regimen: Daily Repeat
Format: toxicity, organism-based, Sprague-Dawley
Parameters: regimen Daily Repeat, gender Male, age 6-8 weeks
Details: in vivo, po, route oral GAVAGE, vehicle 100 % WATER; for BASOPHIL / EOSINOPHIL / ERYTHROCYTE COUNT / HEMATOCRIT / HEMOGLOBIN / LEUKOCYTE COUNT / LYMPHOCYTE / MEAN CORPUSCULAR HEMOGLOBIN / MEAN CORPUSCULAR HEMOGLOBIN CONCENTRATION / MEAN CORPUSCULAR VOLUME / MONOCYTE / NEUTROPHIL / PLATELET COUNT: tissue Blood; for ALANINE AMINOTRANSFERASE / ALBUMIN / ALKALINE PHOSPHATASE / ASPARTATE AMINOTRANSFERASE / BLOOD UREA NITROGEN / CHLORIDE / CHOLESTEROL / CREATINE PHOSPHOKINASE / CREATININE / GLUCOSE / PHOSPHORUS / POTASSIUM / SODIUM / TOTAL BILIRUBIN / TOTAL PROTEIN: tissue Plasma
[1] = 0 mg/kg, 72 h, dose level Control, time 3 day
[2] = 0 mg/kg, 120 h, dose level Control, time 5 day
[3] = 3 mg/kg, 72 h, dose level Low, time 3 day
[4] = 3 mg/kg, 120 h, dose level Low, time 5 day
[5] = 24 mg/kg, 72 h, dose level High, time 3 day
[6] = 24 mg/kg, 120 h, dose level High, time 5 day

Nc1c2c(nc3ccccc13)CCCC2 [TACRINE]
BASOPHIL [1]: 0% | EOSINOPHIL [1]: 0.5% | ERYTHROCYTE COUNT [1]: 5.8 x10E6/uL | HEMATOCRIT [1]: 35.07% | HEMOGLOBIN [1]: 14.12 G/DL | LEUKOCYTE COUNT [1]: 13.7 x10E3/uL | LYMPHOCYTE [1]: 82.33% | MEAN CORPUSCULAR HEMOGLOBIN [1]: 24.38 pg | MEAN CORPUSCULAR HEMOGLOBIN CONCENTRATION [1]: 40.28 G/DL | MEAN CORPUSCULAR VOLUME [1]: 60.52 fL | MONOCYTE [1]: 2.67% | NEUTROPHIL [1]: 14.5% | PLATELET COUNT [1]: 911.5 x10E3/uL | ALANINE AMINOTRANSFERASE [1]: 36.83 u/L | ALBUMIN [1]: 3.75 G/DL | ALKALINE PHOSPHATASE [1]: 399.83 u/L | ASPARTATE AMINOTRANSFERASE [1]: 66 u/L | BLOOD UREA NITROGEN [1]: 14.67 mg/dL | CHLORIDE [1]: 101.67 MEQ/L | CHOLESTEROL [1]: 66.33 mg/dL | CREATINE PHOSPHOKINASE [1]: 139.5 u/L | CREATININE [1]: 0.92 mg/dL | GLUCOSE [1]: 175 mg/dL | PHOSPHORUS [1]: 11.42 mg/dL | POTASSIUM [1]: 7.03 MEQ/L | SODIUM [1]: 148.5 MEQ/L | TOTAL BILIRUBIN [1]: 1.13 mg/dL | TOTAL PROTEIN [1]: 6.87 G/DL | BASOPHIL [2]: 0% | EOSINOPHIL [2]: 0.2% | ERYTHROCYTE COUNT [2]: 6.02 x10E6/uL | HEMATOCRIT [2]: 36.48% | HEMOGLOBIN [2]: 14.38 G/DL | LEUKOCYTE COUNT [2]: 12.34 x10E3/uL | LYMPHOCYTE [2]: 83% | MEAN CORPUSCULAR HEMOGLOBIN [2]: 23.92 pg | MEAN CORPUSCULAR HEMOGLOBIN CONCENTRATION [2]: 39.44 G/DL | MEAN CORPUSCULAR VOLUME [2]: 60.66 fL | MONOCYTE [2]: 3% | NEUTROPHIL [2]: 13.8% | PLATELET COUNT [2]: 1190.6 x10E3/uL | ALANINE AMINOTRANSFERASE [2]: 43 u/L | ALBUMIN [2]: 3.73 G/DL | ALKALINE PHOSPHATASE [2]: 393 u/L | ASPARTATE AMINOTRANSFERASE [2]: 62.33 u/L | BLOOD UREA NITROGEN [2]: 16.33 mg/dL | CHLORIDE [2]: 101.67 MEQ/L | CHOLESTEROL [2]: 65.5 mg/dL | CREATINE PHOSPHOKINASE [2]: 130.67 u/L | CREATININE [2]: 0.58 mg/dL | GLUCOSE [2]: 180.67 mg/dL | PHOSPHORUS [2]: 11.28 mg/dL | POTASSIUM [2]: 7.05 MEQ/L | SODIUM [2]: 148.17 MEQ/L | TOTAL BILIRUBIN [2]: 0.72 mg/dL | TOTAL PROTEIN [2]: 6.83 G/DL | BASOPHIL [3]: 0% | EOSINOPHIL [3]: 0.33% | ERYTHROCYTE COUNT [3]: 5.96 x10E6/uL | HEMATOCRIT [3]: 36.4% | HEMOGLOBIN [3]: 14.47 G/DL | LEUKOCYTE COUNT [3]: 12.6 x10E3/uL | LYMPHOCYTE [3]: 87.33% | MEAN CORPUSCULAR HEMOGLOBIN [3]: 24.3 pg | MEAN CORPUSCULAR HEMOGLOBIN CONCENTRATION [3]: 39.77 G/DL | MEAN CORPUSCULAR VOLUME [3]: 61.13 fL | MONOCYTE [3]: 1.67% | NEUTROPHIL [3]: 10.67% | PLATELET COUNT [3]: 1303 x10E3/uL | ALANINE AMINOTRANSFERASE [3]: 36.33 u/L | ALBUMIN [3]: 3.6 G/DL | ALKALINE PHOSPHATASE [3]: 362.33 u/L | ASPARTATE AMINOTRANSFERASE [3]: 59 u/L | BLOOD UREA NITROGEN [3]: 11.33 mg/dL | CHLORIDE [3]: 102.67 MEQ/L | CHOLESTEROL [3]: 64.33 mg/dL | CREATINE PHOSPHOKINASE [3]: 137.67 u/L | CREATININE [3]: 0.53 mg/dL | GLUCOSE [3]: 188 mg/dL | PHOSPHORUS [3]: 12.8 mg/dL | POTASSIUM [3]: 7.17 MEQ/L | SODIUM [3]: 151.33 MEQ/L | TOTAL BILIRUBIN [3]: 0.37 mg/dL | BASOPHIL [4]: 0% | EOSINOPHIL [4]: 0% | ERYTHROCYTE COUNT [4]: 5.42 x10E6/uL | HEMATOCRIT [4]: 32.47% | HEMOGLOBIN [4]: 13.8 G/DL | LEUKOCYTE COUNT [4]: 15.5 x10E3/uL | LYMPHOCYTE [4]: 85.67% | MEAN CORPUSCULAR HEMOGLOBIN [4]: 25.47 pg | MEAN CORPUSCULAR HEMOGLOBIN CONCENTRATION [4]: 42.53 G/DL | MEAN CORPUSCULAR VOLUME [4]: 59.87 fL | MONOCYTE [4]: 2% | NEUTROPHIL [4]: 12.33% | PLATELET COUNT [4]: 1161.67 x10E3/uL | ALANINE AMINOTRANSFERASE [4]: 32 u/L | ALBUMIN [4]: 3.63 G/DL | ALKALINE PHOSPHATASE [4]: 344.33 u/L | ASPARTATE AMINOTRANSFERASE [4]: 54 u/L | BLOOD UREA NITROGEN [4]: 12.67 mg/dL | CHLORIDE [4]: 103 MEQ/L | CHOLESTEROL [4]: 67.33 mg/dL | CREATINE PHOSPHOKINASE [4]: 106 u/L | CREATININE [4]: 0.57 mg/dL | GLUCOSE [4]: 184.33 mg/dL | PHOSPHORUS [4]: 12.4 mg/dL | POTASSIUM [4]: 6.33 MEQ/L | SODIUM [4]: 150.33 MEQ/L | TOTAL BILIRUBIN [4]: 0.37 mg/dL | TOTAL PROTEIN [4]: 6.6 G/DL | BASOPHIL [5]: 0% | EOSINOPHIL [5]: 0.33% | ERYTHROCYTE COUNT [5]: 6.15 x10E6/uL | HEMATOCRIT [5]: 36.57% | HEMOGLOBIN [5]: 14.57 G/DL | LEUKOCYTE COUNT [5]: 11.57 x10E3/uL | LYMPHOCYTE [5]: 88% | MEAN CORPUSCULAR HEMOGLOBIN [5]: 23.7 pg | MEAN CORPUSCULAR HEMOGLOBIN CONCENTRATION [5]: 39.83 G/DL | MEAN CORPUSCULAR VOLUME [5]: 59.5 fL | MONOCYTE [5]: 2.67% | NEUTROPHIL [5]: 9% | PLATELET COUNT [5]: 1311.33 x10E3/uL | ALANINE AMINOTRANSFERASE [5]: 35.33 u/L | ALBUMIN [5]: 3.7 G/DL | ALKALINE PHOSPHATASE [5]: 375 u/L | ASPARTATE AMINOTRANSFERASE [5]: 63.67 u/L | BLOOD UREA NITROGEN [5]: 12 mg/dL | CHLORIDE [5]: 101.67 MEQ/L | CHOLESTEROL [5]: 59.33 mg/dL | CREATINE PHOSPHOKINASE [5]: 117 u/L | CREATININE [5]: 0.53 mg/dL | GLUCOSE [5]: 189 mg/dL | PHOSPHORUS [5]: 12.73 mg/dL | POTASSIUM [5]: 6.83 MEQ/L | SODIUM [5]: 150 MEQ/L | TOTAL BILIRUBIN [5]: 0.37 mg/dL | TOTAL PROTEIN [5]: 6.53 G/DL | BASOPHIL [6]: 0% | EOSINOPHIL [6]: 0.33% | ERYTHROCYTE COUNT [6]: 6.22 x10E6/uL | HEMATOCRIT [6]: 37.53% | HEMOGLOBIN [6]: 14.57 G/DL | LEUKOCYTE COUNT [6]: 11.73 x10E3/uL | LYMPHOCYTE [6]: 88.33% | MEAN CORPUSCULAR HEMOGLOBIN [6]: 23.43 pg | MEAN CORPUSCULAR HEMOGLOBIN CONCENTRATION [6]: 38.8 G/DL | MEAN CORPUSCULAR VOLUME [6]: 60.47 fL | MONOCYTE [6]: 2.33% | NEUTROPHIL [6]: 9% | PLATELET COUNT [6]: 1085 x10E3/uL | ALANINE AMINOTRANSFERASE [6]: 38 u/L | ALBUMIN [6]: 3.53 G/DL | ALKALINE PHOSPHATASE [6]: 295.33 u/L | ASPARTATE AMINOTRANSFERASE [6]: 62.67 u/L | BLOOD UREA NITROGEN [6]: 13.33 mg/dL | CHLORIDE [6]: 104.67 MEQ/L | CHOLESTEROL [6]: 62 mg/dL | CREATINE PHOSPHOKINASE [6]: 114.67 u/L | CREATININE [6]: 0.6 mg/dL | GLUCOSE [6]: 171 mg/dL | PHOSPHORUS [6]: 12.57 mg/dL | POTASSIUM [6]: 6.4 MEQ/L | SODIUM [6]: 152.33 MEQ/L | TOTAL BILIRUBIN [6]: 0.27 mg/dL | TOTAL PROTEIN [6]: 6.33 G/DL
